Test results as given in article PMC3914656 (Journal of cancer science & therapy, 2013).
Where a name gives a salt, the structure may show the parent alone.

Legend:
p-gp = experiment: qRT-PCR gene expression of p-gp in treated Caco-2 cells; format: cell-based; conditions: for expression of p-gp (qRT-PCR): Caco-2 cells, 24-hrs treatment, actin as control
[1] = Rat in-situ single-pass colon perfusion, effective permeability coefficient; conditions: N-Nitroso N-methyl urea induced colon cancer, Figure 3
[2] = Stability in perfusion solution; format: physicochemical; conditions: Phosphate Buffer Saline pH 7.4 with phenol red, room temperature, 6 hrs, RP-HPLC

permeability coefficient in cancerous colon in comparison to normal colon [1]	stability in perfusion samples [2]	Compound	expression of p-gp (qRT-PCR) (p-gp)	decrease in the expression of p-glycoprotein (P-gp) (p-gp; qRT-PCR and Western blot, curcumin treated colon cancer cells)
decreased	stable	CCc1c2c(nc3ccc(OC(=O)N4CCC(N5CCCCC5)CC4)cc13)-c1cc3c(c(=O)n1C2)COC(=O)[C@]3(O)CC [Irinotecan, Irinotecan Hydrochloride]	increased	–
–	stable	CC(C)NCC(O)COc1cccc2ccccc12 (stereo not drawn) [propranolol]	–	–
–	–	COc1cc(/C=C/C(=O)CC(=O)/C=C/c2ccc(O)c(OC)c2)ccc1O [curcumin]	significant inhibition	about 15 fold
